Where a SMILES comes first, the peptide text is derived from it. [ ]: non-standard residue; d: D form. Dmt = Cc1cc(O)cc(C)c1C[C@H](N)C(=O)O
Legend:
[1] = system: isolated mouse liver mitochondria; experiment: H2O2 production by isolated mitochondria, luminol chemiluminescence; format: biochemical
Diabetic DBA/2 mice = experiment: Marginal islet cell mass transplantation model; format: in vivo
Description: FIG. 35A-35C. Reversal of diabetes following transplantation of a marginal mass of syngeneic islets. Diabetic DBA/2 mice received 200 syngeneic islet cells under the right kidney capsule. Reversal of diabetes was defined as random nonfasting blood glucose levels below 200 mg/dl on 3-consecutive days. (A) Blood glucose levels of each individual control mouse following transplantation of 200 syngeneic islets. (B) Blood glucose levels of each individual SS-31 treated mouse following transplantation of 200 syngeneic islets. (C) Reversal of diabetes following transplantation of a marginal islet cell mass in SS-31 treatment vs. control. Number of normoglycemic mice by day 1, 3, 5, 10 and 14 post transplantation and two-tailed P-valued calculated using chi-squared bivariate analysis are shown.
In a marginal islet cell mass transplantation model, 0 of 8 recipients of islets isolated from pancreas harvested from the control mice had successful reversal of hyperglycemia (defined as three consecutive blood glucose levels<200 mg/dl), whereas sustained normoglycemia occurred in 5 of ten recipients of islets isolated from pancreas from the SS-31 treated donor mice (FIG. 35).

DBA/2 islet cells = experiment: Islet cell uptake of [3H]SS-31; format: in vitro ADME, mouse
Description: FIG. 33A-33B. SS peptides penetrate islet cells, co-localize with mitochondria and preserve islet mitochondrial membrane potential. (A) Islet cell uptake of SS-31. DBA/2 islet cells were incubated with 1 nM of tritium labeled SS-31 and 1 μM unlabeled SS-31 at 37° C. for 1 h. Following incubation, radioactivity was measured in the medium and in cell lysates and the radioactive counts in the medium were subtracted from radioactive counts in the cell lysate and normalized to protein content. In four consecutive experiments, the mean±(SE) [^3H]SS-31 uptake was 70.2+/31 10.3 pmol/mg, of proteins (B)(i-iv) SS-31 preserves islet mitochondrial potential. DBA/2 mice were treated with SS-31 (3 mg/kg s.c. BID) or vehicle control 24 hours prior to pancreas harvest for islet isolation. SS-31 treated groups had 1 nM SS-31 added to the islet isolation reagents. Following isolation, TMRM uptake was evaluated using confocal laser scanning microscopy.
Islets are tightly adherent cell clusters and entry of peptides/proteins may be impaired given their architecture.

[2] = system: Mouse pancreatic islet cells; experiment: tBHP oxidative damage in islet cells (TMRM, DCF); format: cell-based; conditions: 25 μM tBHP, 1 nM SS-31
Description: Mouse pancreatic islet cells were untreated (a), or treated with 25 μM tBHP without or with 1 nM SS-31 (c). Mitochondrial potential was measured by TMRM (red) and reactive oxygen species were measured by DCF (green) using confocal microscopy.

N2A cells = experiment: Nuclear condensation (Hoechst) after tBHP; format: cell-based, murine; conditions: 50 μM tBHP, 12 h
Description: FIG. 20A-20C. […] (A)(a-c; a′-c′) N2A cells were treated with 50 μM tBHP alone or with SS-31 for 12 h. Cells were stained with Hoechst 33342 for 20 min., fixed, and imaged by fluorescent microscopy. (a) Untreated cells show uniformly stained nuclei (a′). […] (c) Cells treated with tBHP and 1 nM SS-31 had less nuclear changes (c′). […] Apoptotic cells were counted using MetaMorph software. *P<0.01 compared to untreated cells; *P<0.01 compared to tBHP alone. […] SH-SY5Y cells were treated with 25 μM tBHP for 24 h. *P<0.01 compared to untreated cells; *P<0.01 compared to tBHP alone.
The morphological appearance of cells treated with tBHP was also consistent with apoptosis. N2A cells incubated with 50 μM tBHP for 12 h became rounded and shrunken (FIG. 20A, panel b). […] These nuclear changes were abolished by concurrent treatment with 1 nM SS-31 (FIG. 20A, panel c′).

[3] = system: islet cells isolated from mouse pancreas; experiment: Islet isolation with SS-31 in isolation buffers (TMRM; annexin V/PI flow cytometry); format: cell-based; conditions: SS-31 1 nM in all isolation buffers
Description: Pancreas was harvested from mice and islet cells were prepared according standard procedures. In some studies, SS-31 (1 nM) was added to all isolation buffers used throughout the isolation procedure. Mitochondrial potential was measured using TMRM (red) and visualized by confocal microscopy.
Pancreas was harvested from mice and islet cells were prepared according standard procedures. In some studies, SS-31 (1 nM) was added to all isolation buffers used throughout the isolation procedure. Apoptosis was ascertained by flow cytometry using annexin V and necrosis by propidium iodide.

mice treated with MPTP = experiment: MPTP animal model of Parkinson's Disease; format: in vivo; conditions: MPTP 3 x 10 mg/kg, sacrificed one week later
Description: MPTP is a neurotoxin that selectively destroys striatal dopamine neurons and can be used as an animal model of Parkinson's Disease. MPP^+, a metabolite of MPTP, targets mitochondria, inhibits complex I of the electron transport chain and increases ROS production. MPP^+ is used in cell culture studied because cells are unable to metabolize MPTP to the active metabolite. MPTP is used for animal studies.
Three doses of MPTP (10 mg/kg) was given to mice (n=12) 2 h apart. SS-31 was administered 30 min before each MPTP injection, and at 1 h and 12 h after the last MPTP injection. Animals were sacrificed one week later and striatal brain regions were immunostained for tyrosine hydroxylase activity.
Three doses of MPTP (10 mg/kg) was given to mice (n=12) 2 h apart. SS-31 was administered 30 min before each MPTP injection, and at 1 h and 12 h after the last MPTP injection.
Animals were sacrificed one week later and dopamine, DOPAC and HVA levels were quantified by high pressure liquid chromatography.

[4] = system: C57BL/6 mice subjected to MCAO; experiment: Infarct size, swelling and cerebral blood flow after MCAO; format: in vivo; conditions: for reduction in infarct volume: 2 mg/kg i.p., 3 days after ischemia
Description: FIG. 32A-32F. Effect of SS-31 peptide on ischemia-induced infarct size and swelling in C57BL/6 mice. Shown are representative serial sections (1.2 mm apart) stained with Cresyl Violet from mice subjected to 30 min (A) and 20 min (B) MCAO and treated with vehicle (Veh) or SS-31 (2 mg/kg body weight) immediately after reperfusion, 6 h, 24 h, and 48 h.
To address whether SS-31-induced attenuation in GSH depletion is associated with neuroprotection, mice were subjected to 30 or 20 min MCAO and then treated with vehicle or SS-31 (2 mg/kg, i.p.) upon reperfusion) and at 6 h, 24 h, 48 h after MCAO. Infarct volumes and hemispheric swelling were determined at 3 days after ischemia.

| Molecule | antimycin-induced increase in H2O2 production ([1]; antimycin 1 μM, peptide 1.0 μM) | amount of H2O2 production ([1]; basal, 10 μM) | recipients with sustained normoglycemia (Diabetic DBA/2 mice; islets from SS-31 treated donor mice) | effect of discontinuation of SS-31 treatment on day 10 (Diabetic DBA/2 mice; mouse, in vivo) | time of reversal of hyperglycemia post-transplant (Diabetic DBA/2 mice; mouse, in vivo) [days] | penetration of intact mouse islets (DBA/2 islet cells) | oxidative damage caused by tBHP [2] | number of apoptotic cells (N2A cells) | nuclear changes (fragmentation and condensation) (N2A cells; 1 nM SS-31) | apoptosis (annexin V) [3] | mitochondrial potential (TMRM) [3] | viability [3] | loss of dopamine neurons (tyrosine hydroxylase immunostaining) (mice treated with MPTP) | striatal DOPAC levels (mice treated with MPTP) | striatal HVA levels (mice treated with MPTP) | striatal dopamine levels (mice treated with MPTP) | reduction in infarct volume ([4]; 20 min ischemia) [%] | reduction in infarct volume ([4]; 30 min ischemia) [%] | hemispheric swelling ([4]; both 30 and 20 min ischemic paradigms) |
| --- | --- | --- | --- | --- | --- | --- | --- | --- | --- | --- | --- | --- | --- | --- | --- | --- | --- | --- | --- |
| 2′,6′-Dmt-Arg-Phe-Lys-NH2 [SS-02] | completely blocked | significantly reduced | – | – | – | – | – | – | – | – | – | – | – | – | – | – | – | – | – |
| Cc1cc(O)cc(C)c1C[C@H](NC(=O)[C@H](N)CCCNC(=N)N)C(=O)N[C@@H](CCCCN)C(=O)N[C@@H](Cc1ccccc1)C(N)=O [SS-31, D-Arg-2′6′-Dmt-Lys-Phe-NH2] (H-[dR][Dmt]KF-NH2; N-terminus assumed) | – | – | 5 of ten | did not result in return of hyperglycemia | ≤ 1 | readily penetrates | reduces oxidative damage | dose-dependently reduced | abolished | reduces apoptosis | improves mitochondrial potential | increases viability | dose-dependently prevented loss | dose-dependently increased | dose-dependently increased | dose-dependently increased | 30 | 24 | significantly attenuated |

From patent US9950026B2, “Methods for reducing oxidative damage” (Cornell Research Foundation, Inc., priority 2004, dated 2018)
